From PubChem BioAssay (NCI)
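Following 48 hours of exposure in 96-well plates, responses at five concentrations were used to interpolate endpoints linearly. At the GI50, growth is halved. TGI marks complete inhibition of growth.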

Each compound was assayed on NCI-H23 lung (assay: NCI-60 cell line screen, 48 h).
With Cc1ncc(C(=O)Nc2ccc(CN3CCN(C)CC3)c(C(F)(F)F)c2)cc1C#Cc1cnc(N)c2ccncc12 the GI50 was 1.34 µM and the TGI was 3.35 µM. In the case of C#C[C@]1(O)CCC2C3CCc4cc(O)ccc4C3CC[C@@]21C (some centres not stated), the GI50 is reported as 4.7 µM and the TGI is reported as 25.7 µM.

These compounds were tested on NCI-H460 lung (assay: NCI-60 cell line screen, 48 h).
CN1C2CCC1CC(=CCOC(c1ccc(F)cc1)c1ccc(F)cc1)C2 showed a TGI of 35.3 µM. Work on Nc1c(C(=O)Nc2ccncc2)sc2nc3c(cc12)CCCCCCCC3 yielded a GI50 of 0.995 µM and a TGI of 1.83 µM. Cc1ncc(C(=O)Nc2ccc(CN3CCN(C)CC3)c(C(F)(F)F)c2)cc1C#Cc1cnc(N)c2ccncc12 gave a GI50 of 1.38 µM and a TGI of 3.02 µM. Compound C#C[C@]1(O)CCC2C3CCc4cc(O)ccc4C3CC[C@@]21C (some centres not stated) has a GI50 of 4.02 µM and a TGI of 17.8 µM.

Each compound was assayed on NCI-H522 lung (assay: NCI-60 cell line screen, 48 h).
For CN1C2CCC1CC(=CCOC(c1ccc(F)cc1)c1ccc(F)cc1)C2, the TGI was 24.7 µM. Cc1ncc(C(=O)Nc2ccc(CN3CCN(C)CC3)c(C(F)(F)F)c2)cc1C#Cc1cnc(N)c2ccncc12 showed a GI50 of 1.14 µM and a TGI of 2.5 µM. Work on C#C[C@]1(O)CCC2C3CCc4cc(O)ccc4C3CC[C@@]21C (some centres not stated) yielded a GI50 of 3.47 µM and a TGI of 20.5 µM.

The compounds below were run on NCI/ADR-RES ovarian (assay: NCI-60 cell line screen, 48 h).
With CN1C2CCC1CC(=CCOC(c1ccc(F)cc1)c1ccc(F)cc1)C2 the TGI was 40.1 µM. For Nc1c(C(=O)Nc2ccncc2)sc2nc3c(cc12)CCCCCCCC3, the GI50 was 0.921 µM and the TGI was 1.78 µM. For Cc1ncc(C(=O)Nc2ccc(CN3CCN(C)CC3)c(C(F)(F)F)c2)cc1C#Cc1cnc(N)c2ccncc12, the GI50 was 1.61 µM and the TGI was 5.47 µM. For C#C[C@]1(O)CCC2C3CCc4cc(O)ccc4C3CC[C@@]21C (some centres not stated), the GI50 was 3.14 µM and the TGI was 25.4 µM.

The compounds below were run on OVCAR-3 ovarian (assay: NCI-60 cell line screen, 48 h).
CN1C2CCC1CC(=CCOC(c1ccc(F)cc1)c1ccc(F)cc1)C2 showed a TGI of 31.3 µM. Work on Nc1c(C(=O)Nc2ccncc2)sc2nc3c(cc12)CCCCCCCC3 yielded a GI50 of 0.946 µM and a TGI of 1.68 µM. Cc1ncc(C(=O)Nc2ccc(CN3CCN(C)CC3)c(C(F)(F)F)c2)cc1C#Cc1cnc(N)c2ccncc12 gave a GI50 of 1.67 µM and a TGI of 5.33 µM. C#C[C@]1(O)CCC2C3CCc4cc(O)ccc4C3CC[C@@]21C (some centres not stated) showed a GI50 of 3.14 µM and a TGI of 8.43 µM.

Each compound was assayed on OVCAR-4 ovarian (assay: NCI-60 cell line screen, 48 h).
CN1C2CCC1CC(=CCOC(c1ccc(F)cc1)c1ccc(F)cc1)C2 gave a TGI of 31.9 µM. Nc1c(C(=O)Nc2ccncc2)sc2nc3c(cc12)CCCCCCCC3 showed a GI50 of 0.861 µM and a TGI of 1.6 µM. C#C[C@]1(O)CCC2C3CCc4cc(O)ccc4C3CC[C@@]21C (some centres not stated) showed a GI50 of 6.76 µM and a TGI of 33.6 µM.

The compounds below were run on OVCAR-5 ovarian (assay: NCI-60 cell line screen, 48 h).
CN1C2CCC1CC(=CCOC(c1ccc(F)cc1)c1ccc(F)cc1)C2 gave a TGI of 36 µM. In the case of Nc1c(C(=O)Nc2ccncc2)sc2nc3c(cc12)CCCCCCCC3, the GI50 is reported as 0.897 µM and the TGI is reported as 1.64 µM. Cc1ncc(C(=O)Nc2ccc(CN3CCN(C)CC3)c(C(F)(F)F)c2)cc1C#Cc1cnc(N)c2ccncc12 gave a GI50 of 1.45 µM and a TGI of 4.53 µM. For C#C[C@]1(O)CCC2C3CCc4cc(O)ccc4C3CC[C@@]21C (some centres not stated), the GI50 was 17.3 µM and the TGI was > 100 µM.

Each compound was assayed on OVCAR-8 ovarian (assay: NCI-60 cell line screen, 48 h).
In the case of CN1C2CCC1CC(=CCOC(c1ccc(F)cc1)c1ccc(F)cc1)C2, the TGI is reported as 32 µM. Nc1c(C(=O)Nc2ccncc2)sc2nc3c(cc12)CCCCCCCC3 gave a GI50 of 1.54 µM and a TGI of 50 µM. For Cc1ncc(C(=O)Nc2ccc(CN3CCN(C)CC3)c(C(F)(F)F)c2)cc1C#Cc1cnc(N)c2ccncc12, the GI50 was 1.69 µM and the TGI was 6.55 µM. C#C[C@]1(O)CCC2C3CCc4cc(O)ccc4C3CC[C@@]21C (some centres not stated) showed a GI50 of 5.8 µM and a TGI of 37.2 µM.

What follows are compounds tested on PC-3 prostate (assay: NCI-60 cell line screen, 48 h).
CN1C2CCC1CC(=CCOC(c1ccc(F)cc1)c1ccc(F)cc1)C2 gave a TGI of 33.1 µM. Work on Nc1c(C(=O)Nc2ccncc2)sc2nc3c(cc12)CCCCCCCC3 yielded a GI50 of 0.866 µM and a TGI of 1.72 µM. With Cc1ncc(C(=O)Nc2ccc(CN3CCN(C)CC3)c(C(F)(F)F)c2)cc1C#Cc1cnc(N)c2ccncc12 the GI50 was 2.41 µM and the TGI was 6.76 µM. With C#C[C@]1(O)CCC2C3CCc4cc(O)ccc4C3CC[C@@]21C (some centres not stated) the GI50 was 5.48 µM and the TGI was 42.4 µM.

What follows are compounds tested on RPMI-8226 leukemia (assay: NCI-60 cell line screen, 48 h).
With CN1C2CCC1CC(=CCOC(c1ccc(F)cc1)c1ccc(F)cc1)C2 the TGI was 38 µM. Work on Nc1c(C(=O)Nc2ccncc2)sc2nc3c(cc12)CCCCCCCC3 yielded a GI50 of 1.23 µM and a TGI of 2.71 µM. In the case of Cc1ncc(C(=O)Nc2ccc(CN3CCN(C)CC3)c(C(F)(F)F)c2)cc1C#Cc1cnc(N)c2ccncc12, the GI50 is reported as 2.18 µM and the TGI is reported as 5.46 µM.

Each compound was assayed on RXF 393 renal (assay: NCI-60 cell line screen, 48 h).
CN1C2CCC1CC(=CCOC(c1ccc(F)cc1)c1ccc(F)cc1)C2 was tested, and the TGI was 28.2 µM. Nc1c(C(=O)Nc2ccncc2)sc2nc3c(cc12)CCCCCCCC3 gave a GI50 of 0.938 µM and a TGI of 1.7 µM. Compound Cc1ncc(C(=O)Nc2ccc(CN3CCN(C)CC3)c(C(F)(F)F)c2)cc1C#Cc1cnc(N)c2ccncc12 has a GI50 of 0.647 µM and a TGI of 1.87 µM. C#C[C@]1(O)CCC2C3CCc4cc(O)ccc4C3CC[C@@]21C (some centres not stated) showed a GI50 of 4.66 µM and a TGI of 17.7 µM.

Each compound was assayed on SF-268 CNS (assay: NCI-60 cell line screen, 48 h).
Compound CN1C2CCC1CC(=CCOC(c1ccc(F)cc1)c1ccc(F)cc1)C2 has a TGI of 27 µM. Nc1c(C(=O)Nc2ccncc2)sc2nc3c(cc12)CCCCCCCC3 gave a GI50 of 0.954 µM and a TGI of 1.74 µM. Compound Cc1ncc(C(=O)Nc2ccc(CN3CCN(C)CC3)c(C(F)(F)F)c2)cc1C#Cc1cnc(N)c2ccncc12 has a GI50 of 0.702 µM and a TGI of 2.99 µM. In the case of C#C[C@]1(O)CCC2C3CCc4cc(O)ccc4C3CC[C@@]21C (some centres not stated), the GI50 is reported as 5.23 µM and the TGI is reported as 32.7 µM.

These compounds were tested on SF-295 CNS (assay: NCI-60 cell line screen, 48 h).
CN1C2CCC1CC(=CCOC(c1ccc(F)cc1)c1ccc(F)cc1)C2 was tested, and the TGI was 30.9 µM. In the case of Nc1c(C(=O)Nc2ccncc2)sc2nc3c(cc12)CCCCCCCC3, the GI50 is reported as 0.907 µM and the TGI is reported as 1.69 µM. Cc1ncc(C(=O)Nc2ccc(CN3CCN(C)CC3)c(C(F)(F)F)c2)cc1C#Cc1cnc(N)c2ccncc12 showed a GI50 of 1.23 µM and a TGI of 2.93 µM. C#C[C@]1(O)CCC2C3CCc4cc(O)ccc4C3CC[C@@]21C (some centres not stated) was tested, and the GI50 was 2.7 µM and the TGI was 12.2 µM.

What follows are compounds tested on SF-539 CNS (assay: NCI-60 cell line screen, 48 h).
CN1C2CCC1CC(=CCOC(c1ccc(F)cc1)c1ccc(F)cc1)C2 was tested, and the TGI was 31.9 µM. Nc1c(C(=O)Nc2ccncc2)sc2nc3c(cc12)CCCCCCCC3 gave a GI50 of 0.878 µM and a TGI of 1.6 µM. Compound Cc1ncc(C(=O)Nc2ccc(CN3CCN(C)CC3)c(C(F)(F)F)c2)cc1C#Cc1cnc(N)c2ccncc12 has a GI50 of 0.548 µM and a TGI of 1.79 µM. Work on C#C[C@]1(O)CCC2C3CCc4cc(O)ccc4C3CC[C@@]21C (some centres not stated) yielded a GI50 of 4 µM and a TGI of 14.7 µM.

Each compound was assayed on SK-MEL-2 melanoma (assay: NCI-60 cell line screen, 48 h).
Work on CN1C2CCC1CC(=CCOC(c1ccc(F)cc1)c1ccc(F)cc1)C2 yielded a TGI of 39.4 µM. Nc1c(C(=O)Nc2ccncc2)sc2nc3c(cc12)CCCCCCCC3 was tested, and the GI50 was 0.975 µM and the TGI was 1.79 µM. Work on Cc1ncc(C(=O)Nc2ccc(CN3CCN(C)CC3)c(C(F)(F)F)c2)cc1C#Cc1cnc(N)c2ccncc12 yielded a GI50 of 1.72 µM and a TGI of 3.65 µM. With C#C[C@]1(O)CCC2C3CCc4cc(O)ccc4C3CC[C@@]21C (some centres not stated) the GI50 was 5.81 µM and the TGI was 26.8 µM.

What follows are compounds tested on SK-MEL-28 melanoma (assay: NCI-60 cell line screen, 48 h).
With CN1C2CCC1CC(=CCOC(c1ccc(F)cc1)c1ccc(F)cc1)C2 the TGI was 47.9 µM.
